# Test results reported in US20120015907A1, “Furopyridine compounds and uses thereof” (NOVARTIS AG, priority 2010, published 2012).
# pIC50: −log10 of the molar value.
# Target: T1, HCV polymerase (Hepatitis C virus genotype 1b, UniProt Q9WMX2)
# T1 construct: (His)6 (C)
# Experiment: biochemical
# Details: NS5B polymerase IC50 μM, polymerase assay of Biological Example 1
row,Compound,IC50
1,"CNC(=O)c1c(-c2ccc(C)cc2)oc2nc(N(CCCCCP(C)(=O)O)S(C)(=O)=O)c(C3CC3)cc12 [Example 23.999991, 5-(N-(5-cyclopropyl-3-(methylcarbamoyl)-2-p-tolylfuro[2,3-b]pyridin-6-yl)methylsulfonamido)pentyl (methyl)phosphinic acid]",0.004 µM
2,"CNC(=O)c1c(-c2ccc(C)cc2)oc2nc(N(CCCCCP(C)(=O)O)S(C)(=O)=O)c(I)cc12 [Example 23.9998, 5-(N-(5-iodo-3-(methylcarbamoyl)-2-p-tolylfuro[2,3-b]pyridin-6-yl)methylsulfonamido)pentyl (methyl)phosphinic acid]",0.011 µM

# Same assay, conditions: polymerase assay of Biological Example 1; read-out: NS5B polymerase IC50
row,Compound,pIC50
1,"CCc1ccc(-c2oc3nc(N(CCCC4(C(=O)O)CCOCC4)S(C)(=O)=O)c(C4CC4)cc3c2C(=O)NC)cc1 [Example 29.7, 4-(3-(N-(5-cyclopropyl-2-(4-ethylphenyl)-3-(methylcarbamoyl)furo[2,3-b]pyridin-6-yl)methylsulfonamido)propyl) tetrahydro-2H-pyran-4-carboxylic acid]",8.70
2,"CNC(=O)c1c(-c2ccc(C)cc2)oc2nc(N(CCC[C@H](C)C(=O)OCOP(=O)(OCc3ccccc3)OCc3ccccc3)S(C)(=O)=O)c(C3CC3)cc12 [Example 49.1, (S)-((bis(benzyloxy)phosphoryl)oxy)methyl 5-(N-(5-cyclopropyl-3-(methylcarbamoyl)-2-(p-tolyl)furo[2,3-b]pyridin-6-yl)methylsulfonamido)-2-methylpentanoate]",8.22
3,"CCc1cc2c(C(=O)NC)c(-c3ccc(F)cc3)oc2nc1N(CCCC(=O)N(C)C)S(C)(=O)=O [Example 22.96, 6-(N-(4-(dimethylamino)-4-oxobutyl)methylsulfonamido)-5-ethyl-2-(4-fluorophenyl)-N-methylfuro[2,3-b]pyridine-3-carboxamide]",6.88
4,"CCc1ccc(-c2oc3nc(N(CCCCC4(C(=O)O)CCOCC4)S(C)(=O)=O)c(C4CC4)cc3c2C(=O)NC)cc1 [Example 29.94, 4-(4-(N-(5-cyclopropyl-2-(4-ethylphenyl)-3-(methylcarbamoyl)furo[2,3-b]pyridin-6-yl)methylsulfonamido)butyl) tetrahydro-2H-pyran-4-carboxylic acid]",8.52
5,"CNC(=O)c1c(-c2ccc(C)cc2)oc2nc(N(CCCCO)S(C)(=O)=O)c(I)cc12 [Example 23.9996, 6-(N-(4-hydroxybutyl)methylsulfonamido)-5-iodo-N-methyl-2-p-tolylfuro[2,3-b]pyridine-3-carboxamide]",7.72
6,"CNC(=O)c1c(-c2ccc(F)cc2)oc2nc(N(CCCCC#N)S(C)(=O)=O)c(I)cc12 [Example 18.9, 6-(N-(4-cyanobutyl)methylsulfonamido)-2-(4-fluorophenyl)-5-iodo-N-methylfuro[2,3-b]pyridine-3-carboxamide]",6.96
7,"CCc1cc2c(C(=O)NC)c(-c3ccc(F)cc3)oc2nc1N(CCC[S+](C)[O-])S(C)(=O)=O (stereo not drawn) [Example 23.999, 5-ethyl-2-(4-fluorophenyl)-N-methyl-6-(N-(3-(methylsulfinyl)propyl)methylsulfonamido)furo[2,3-b]pyridine-3-carboxamide]",7.10
8,"CCc1ccc(-c2oc3nc(N(CCCC(C)C(=O)O)S(C)(=O)=O)c(C4CC4)cc3c2C(=O)NC)cc1 (stereo not drawn) [Example 29.9995, 5-(N-(5-cyclopropyl-2-(4-ethylphenyl)-3-(methylcarbamoyl)furo[2,3-b]pyridin-6-yl)methylsulfonamido)-2-methylpentanoic acid]",8.70
9,"CNC(=O)c1c(-c2ccc(C)cc2)oc2nc(N(CCCCCCCCC(=O)O)S(C)(=O)=O)c(C3CC3)cc12 [Example 29.992, 9-(N-(5-cyclopropyl-3-(methylcarbamoyl)-2-p-tolylfuro[2,3-b]pyridin-6-yl)methylsulfonamido) nonanoic acid]",8.15
10,"CCc1cc2c(C(=O)NC)c(-c3ccc(F)cc3)oc2nc1N(CCOc1ccccc1C#N)S(C)(=O)=O [Example 21.95, 6-(N-(2-(2-cyanophenoxy)ethyl)methylsulfonamido)-5-ethyl-2-(4-fluorophenyl)-N-methylfuro[2,3-b]pyridine-3-carboxamide]",6.92
11,"CNC(=O)c1c(-c2ccc(C)cc2)oc2nc(N(CCCCC(=O)O)S(C)(=O)=O)c(CCO)cc12 [Example 29.999997, 5-(N-(5-(2-hydroxyethyl)-3-(methylcarbamoyl)-2-p-tolylfuro[2,3-b]pyridin-6-yl)methylsulfonamido) pentanoic acid]",7.32
12,"CCc1ccc(-c2oc3nc(N(CCCCCC(=O)O)S(C)(=O)=O)c(C4CC4)cc3c2C(=O)NC)cc1 [Example 29.9, 6-(N-(5-cyclopropyl-2-(4-ethylphenyl)-3-(methylcarbamoyl)furo[2,3-b]pyridin-6-yl)methylsulfonamido) hexanoic acid]",8.70
13,"CCc1cc2c(C(=O)NC)c(-c3ccc(F)cc3)oc2nc1N(CCCO)S(C)(=O)=O [Example 23.2, 5-ethyl-2-(4-fluorophenyl)-6-(N-(3-hydroxypropyl)methylsulfonamido)-N-methylfuro[2,3-b]pyridine-3-carboxamide]",6.84
14,"CCc1ccc(-c2oc3nc(N(CCCC[C@@H](COC)C(=O)O)S(C)(=O)=O)c(C4CC4)cc3c2C(=O)NC)cc1 [Example 47.4, (S)-6-(N-(5-Cyclopropyl-2-(4-ethylphenyl)-3-(methylcarbamoyl)furo[2,3-b]pyridin-6-yl)methylsulfonamido)-2-(methoxymethyl)hexanoic acid]",8.52
15,"CNC(=O)c1c(-c2ccc(C)cc2)oc2nc(N(CCC3CCCC3C(=O)O)S(C)(=O)=O)c(I)cc12 (stereo not drawn) [Example 18.999, 2-(2-(N-(5-iodo-3-(methylcarbamoyl)-2-p-tolylfuro[2,3-b]pyridin-6-yl)methylsulfonamido)ethyl)cyclopentanecarboxylic acid]",8.40
16,"CNC(=O)c1c(-c2ccc(F)cc2)oc2nc(N(CCn3ccnc3)S(C)(=O)=O)c(I)cc12 [Example 23.995, 6-(N-(2-(1H-imidazol-1-yl)ethyl)methylsulfonamido)-2-(4-fluorophenyl)-5-iodo-N-methylfuro[2,3-b]pyridine-3-carboxamide]",6.94
17,"CNC(=O)c1c(-c2ccc(F)cc2)oc2nc(N(C)S(C)(=O)=O)c(CCCCC(=O)N3CCC[C@H]3C(N)=O)cc12 [Example 4.8, (S)-5-(5-(2-carbamoylpyrrolidin-1-yl)-5-oxopentyl)-2-(4-fluorophenyl)-N-methyl-6-(N-methylmethylsulfonamido)furo[2,3-b]pyridine-3-carboxamide]",7.29
18,"CCc1cc2c(C(=O)NC)c(-c3ccc(F)cc3)oc2nc1N(CCCCC(=O)O)S(C)(=O)=O [Example 21.2, 5-(N-(5-ethyl-2-(4-fluorophenyl)-3-(methylcarbamoyl)furo[2,3-b]pyridin-6-yl)methylsulfonamido)pentanoic acid]",7.92
19,"CNC(=O)c1c(-c2ccc(C)cc2)oc2nc(N(CCCC(C)(COC)C(=O)O)S(C)(=O)=O)c(C3CC3)cc12 (stereo not drawn) [Example 43.1, 5-(N-(5-cyclopropyl-3-(methylcarbamoyl)-2-p-tolylfuro[2,3-b]pyridin-6-yl)methylsulfonamido)-2-(methoxymethyl)-2-methylpentanoic acid]",8.70
20,"CNC(=O)c1c(-c2ccc(C)cc2)oc2nc(N(CCCC3(C(=O)O)CCN(C(C)=O)CC3)S(C)(=O)=O)c(C3CC3)cc12 [Example 29.99992, 1-acetyl-4-(3-(N-(5-cyclopropyl-3-(methylcarbamoyl)-2-p-tolylfuro[2,3-b]pyridin-6-yl)methylsulfonamido)propyl) piperidine-4-carboxylic acid]",8.70
21,"CNC(=O)c1c(-c2ccc(C)cc2)oc2nc(N(CCCC[C@H](COC)C(=O)N[C@H](CO)Cc3ccccc3)S(C)(=O)=O)c(C3CC3)cc12 [Example 47.6, 5-Cyclopropyl-6-(N—((R)-6-((S)-1-hydroxy-3-phenylpropan-2-ylamino)-5-(methoxymethyl)-6-oxohexyl)methylsulfonamido)-N-methyl-2-p-tolylfuro[2,3-b]pyridine-3-carboxamide]",8.30
22,"CNC(=O)c1c(-c2ccc(F)cc2)oc2nc(N(CCCS(C)(=O)=O)S(C)(=O)=O)c(I)cc12 [Example 18.993, 2-(4-fluorophenyl)-5-iodo-N-methyl-6-(N-(3-(methylsulfonyl)propyl)methylsulfonamido)furo[2,3-b]pyridine-3-carboxamide]",6.95
23,"CNC(=O)c1c(-c2ccc(F)cc2)oc2nc(N(C)S(C)(=O)=O)c(CCCC(O)CO)cc12 (stereo not drawn) [Example 4.92, 5-(4,5-dihydroxypentyl)-2-(4-fluorophenyl)-N-methyl-6-(N-methylmethylsulfonamido)furo[2,3-b]pyridine-3-carboxamide]",6.65
24,"CCc1ccc(-c2oc3nc(N(CCCCCO)S(C)(=O)=O)c(I)cc3c2C(=O)NC)cc1 [Example 23.9993, 2-(4-ethylphenyl)-6-(N-(5-hydroxypentyl)methylsulfonamido)-5-iodo-N-methylfuro[2,3-b]pyridine-3-carboxamide]",7.59
25,"CNC(=O)c1c(-c2ccc(F)cc2)oc2nc(N(C)S(C)(=O)=O)c(CCCC(N)=O)cc12 [Example 4.3, 5-(4-amino-4-oxobutyl)-2-(4-fluorophenyl)-N-methyl-6-(N-methylmethylsulfonamido)furo[2,3-b]pyridine-3-carboxamide]",6.88
26,"CNC(=O)c1c(-c2ccc(F)cc2)oc2nc3c(cc12)[C@H](C)C[C@H](O)CN3S(C)(=O)=O (single isomer, unassigned) [Example 33]",6.77
27,"CCc1cc2c(C(=O)NC)c(-c3ccc(F)cc3)oc2nc1N(CCCN1CCOCC1)S(C)(=O)=O [Example 21.93, 5-ethyl-2-(4-fluorophenyl)-N-methyl-6-(N-(3-morpholinopropyl)methylsulfonamido)furo[2,3-b]pyridine-3-carboxamide]",6.73
28,"CCc1cc2c(C(=O)NC)c(-c3ccc(F)cc3)oc2nc1N(CCCCS(=O)(=O)c1ccccc1)S(C)(=O)=O [Example 23.8, 5-ethyl-2-(4-fluorophenyl)-N-methyl-6-(N-(4-(phenylsulfonyl)butyl)methylsulfonamido)furo[2,3-b]pyridine-3-carboxamide]",7.24
